Patent US20250206701A1
“And” between values parts separate entries of the source, which are not always exact repeats. Identical values can stand only once. “Also recorded” adds a separate entry of the source.

Tests used:
[1] = In vitro metabolic stability / psilocin release assays (liver, intestinal, serum fractions, buffer)
[2] = Mouse PK study: plasma parent compound and psilocin metabolite after dosing of the labelled compound; conditions: for Plasma concentration of psilocybin / Plasma concentration of E(VI) / AUC0-tlast/Dose of E(VI): 1 mg/kg i.v.
[3] = target: T1, 5-HT2A receptor (Mus musculus, UniProt P35363); test: Drug-induced Head Twitch Response (HTR) in mice; format: in vivo, C57BL/6-Elite mice; conditions: 1 mg/kg i.p.; for Head Twitch Response (HTR): 15-to-30-minute window post-drug, relative to vehicle
T1 construct: tissue Charles River; host or cells: living C57BL/6-Elite mice (brain, in vivo)
T1 sequence (P35363 whole entry): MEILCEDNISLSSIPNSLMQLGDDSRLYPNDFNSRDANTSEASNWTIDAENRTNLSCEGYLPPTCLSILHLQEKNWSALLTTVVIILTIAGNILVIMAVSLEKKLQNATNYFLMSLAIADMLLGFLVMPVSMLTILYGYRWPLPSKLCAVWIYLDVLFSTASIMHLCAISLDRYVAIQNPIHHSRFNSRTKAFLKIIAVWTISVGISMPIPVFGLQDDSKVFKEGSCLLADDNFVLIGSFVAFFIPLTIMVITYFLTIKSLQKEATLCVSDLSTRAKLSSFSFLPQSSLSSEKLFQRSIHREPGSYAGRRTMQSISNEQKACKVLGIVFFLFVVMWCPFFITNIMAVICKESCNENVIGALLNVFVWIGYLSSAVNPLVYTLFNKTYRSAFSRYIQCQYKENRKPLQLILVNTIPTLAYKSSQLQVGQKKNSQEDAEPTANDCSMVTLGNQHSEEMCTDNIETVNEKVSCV

[4] = target: T2, 5-HT1A receptor (Homo sapiens, UniProt P08908); test: cAMP-Glo assay of 5-HT1A receptor modulation in CHO-K1/5-HT1A/Ga15 cells; format: cell-based; conditions: +5-HT1A vs −5-HT1A cells, 4 mM forskolin, increasing ligand concentrations
T2 construct: host or cells: CHO-K1 (co-expressing Ga15)
T2 sequence (P08908 1-422): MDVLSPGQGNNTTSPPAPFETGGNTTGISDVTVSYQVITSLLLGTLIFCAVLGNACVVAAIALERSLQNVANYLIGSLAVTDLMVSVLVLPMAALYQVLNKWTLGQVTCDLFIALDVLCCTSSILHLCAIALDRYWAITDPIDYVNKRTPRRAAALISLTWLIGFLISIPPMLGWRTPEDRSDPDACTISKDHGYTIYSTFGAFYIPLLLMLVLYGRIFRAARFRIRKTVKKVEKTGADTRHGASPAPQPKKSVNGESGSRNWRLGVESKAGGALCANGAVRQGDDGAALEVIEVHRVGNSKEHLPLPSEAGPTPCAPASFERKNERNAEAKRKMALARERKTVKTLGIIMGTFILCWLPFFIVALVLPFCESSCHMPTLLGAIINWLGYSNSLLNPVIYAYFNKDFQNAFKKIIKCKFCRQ

[5] = target: AVPR1A (Homo sapiens, UniProt P37288); test: SAFETYscan calcium secondary messenger assay, AVPR1A; format: cell-based
Chain of AVPR1A (P37288 whole entry): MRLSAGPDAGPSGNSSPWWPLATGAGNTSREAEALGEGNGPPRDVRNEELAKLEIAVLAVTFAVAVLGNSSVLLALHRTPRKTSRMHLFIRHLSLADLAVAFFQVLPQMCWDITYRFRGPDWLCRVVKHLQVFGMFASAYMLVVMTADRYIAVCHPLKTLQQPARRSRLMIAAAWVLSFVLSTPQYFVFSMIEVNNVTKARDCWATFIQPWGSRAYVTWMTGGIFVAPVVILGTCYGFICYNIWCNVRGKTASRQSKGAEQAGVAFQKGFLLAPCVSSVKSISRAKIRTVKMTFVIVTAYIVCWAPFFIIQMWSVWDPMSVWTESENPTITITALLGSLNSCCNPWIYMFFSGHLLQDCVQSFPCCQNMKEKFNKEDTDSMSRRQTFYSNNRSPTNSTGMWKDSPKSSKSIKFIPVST

[6] = target: T3, MAO-A (Homo sapiens, UniProt P21397); test: SAFETYscan MAO-A enzyme assay; format: biochemical
T3 construct: purchased Sigma
T3 sequence (P21397 1-527): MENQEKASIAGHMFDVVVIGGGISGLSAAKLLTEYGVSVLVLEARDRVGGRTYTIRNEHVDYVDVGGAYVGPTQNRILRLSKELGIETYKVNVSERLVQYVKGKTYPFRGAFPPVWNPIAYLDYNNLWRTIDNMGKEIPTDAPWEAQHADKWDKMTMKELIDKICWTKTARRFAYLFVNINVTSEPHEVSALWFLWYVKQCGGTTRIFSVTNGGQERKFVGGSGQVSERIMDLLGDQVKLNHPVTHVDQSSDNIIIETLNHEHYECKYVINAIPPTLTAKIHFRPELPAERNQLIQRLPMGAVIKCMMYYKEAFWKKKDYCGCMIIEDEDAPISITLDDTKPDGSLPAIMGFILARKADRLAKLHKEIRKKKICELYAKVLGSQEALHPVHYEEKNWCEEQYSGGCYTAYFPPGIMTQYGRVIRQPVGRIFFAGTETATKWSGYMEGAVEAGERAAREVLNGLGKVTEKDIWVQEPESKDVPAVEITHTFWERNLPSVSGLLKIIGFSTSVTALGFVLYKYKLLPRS

[7] = 3 mg/kg oral, 24 h, individual mice, BLQ = below 0.2 ng/mL
[8] = oral doses, any dose / timepoint

## CN(C)CCc1c[nH]c2cccc(OC(=O)OCc3ccccc3)c12 [B(II)]
[1]; HLM, HLS9, HIM, HIS9, AB serum, buffer control (any conditions)
  dissociation to psilocin: did not readily dissociate to psilocin under any conditions
[2]; 1 mg/kg oral
  detection of parent compound in plasma after oral administration: neither B(II) nor E(VI) were detected in plasma
[2]; 1 mg/kg oral, 0.25 h, mean ± SD
  Plasma concentration of psilocin: 19.7 ± 5.50 ng/mL
[2]; 1 mg/kg oral, 0.5 h, mean ± SD
  Plasma concentration of psilocin: 11.9 ± 2.03 ng/mL
[2]; 1 mg/kg oral, 1 h, mean ± SD
  Plasma concentration of psilocin: 4.63 ± 0.788 ng/mL
[2]; 1 mg/kg oral, 2 h, mean ± SD
  Plasma concentration of psilocin: 2.20 ± 0.850 ng/mL
[2]; 1 mg/kg oral, 4 h, mean ± SD
  Plasma concentration of psilocin: 2.05 ± 0.359 ng/mL
[2]; 1 mg/kg oral, 6 h, mean ± SD
  Plasma concentration of psilocin: 0.739 ± 0.288 ng/mL
[2]; 1 mg/kg oral, 8 h, mean ± SD
  Plasma concentration of psilocin: 0.453 ± 0.0460 ng/mL
[2]; 1 mg/kg oral, dose of administered compound used, mean ± SD
  Cmax/Dose of psilocin: 19.7 ± 5.50 kg·ng/mL/mg
[2]; 3 mg/kg oral, 0.25 h, mean ± SD
  Plasma concentration of psilocin: 55.6 ± 8.67 ng/mL
[2]; 3 mg/kg oral, 0.5 h, mean ± SD
  Plasma concentration of psilocin: 32.3 ± 4.98 ng/mL
[2]; 3 mg/kg oral, 1 h, mean ± SD
  Plasma concentration of psilocin: 9.29 ± 3.05 ng/mL
[2]; 3 mg/kg oral, 2 h, mean ± SD
  Plasma concentration of psilocin: 7.67 ± 0.921 ng/mL
[2]; 3 mg/kg oral, 4 h, mean ± SD
  Plasma concentration of psilocin: 6.76 ± 2.13 ng/mL
[2]; 3 mg/kg oral, 6 h, mean ± SD
  Plasma concentration of psilocin: 2.41 ± 0.845 ng/mL
[2]; 3 mg/kg oral, 8 h, mean ± SD
  Plasma concentration of psilocin: 0.722 ± 0.368 ng/mL
[2]; 3 mg/kg oral, dose of administered compound used, mean ± SD
  AUC0-tlast/Dose of psilocin: 20.3 ± 2.78 kg·ng·h/mL/mg
[2]; 10 mg/kg oral
  time parent compound resides in plasma post-dosing: up to 4 hours
[2]; 10 mg/kg oral, 0.25 h, mean ± SD
  Plasma concentration of psilocin: 306 ± 34.6 ng/mL
[2]; 10 mg/kg oral, 0.5 h, mean ± SD
  Plasma concentration of psilocin: 125 ± 16.3 ng/mL
[2]; 10 mg/kg oral, 1 h, mean ± SD
  Plasma concentration of psilocin: 49.6 ± 10.5 ng/mL
[2]; 10 mg/kg oral, 2 h, mean ± SD
  Plasma concentration of psilocin: 20.7 ± 1.42 ng/mL
[2]; 10 mg/kg oral, 4 h, mean ± SD
  Plasma concentration of psilocin: 31.4 ± 6.34 ng/mL
[2]; 10 mg/kg oral, 6 h, mean ± SD
  Plasma concentration of psilocin: 11.5 ± 1.43 ng/mL
[2]; 10 mg/kg oral, 8 h, mean ± SD
  Plasma concentration of psilocin: 6.38 ± 2.98 ng/mL
[2]; 10 mg/kg oral, dose of administered compound used, mean ± SD
  Cmax/Dose of psilocin: 30.6 ± 3.46 kg·ng/mL/mg
[2]; oral dosing, Tables 16 and 17
  psilocin levels / exposure compared with E(VI)-treated mice: higher psilocin levels
[3]
  Head Twitch Response (HTR): elicit head twitching

## CN(C)CCc1c[nH]c2cccc(OP(=O)(O)O)c12 [psilocybin]
[1]; assay buffer (enzyme-free control)
  stability: stability of psilocybin was confirmed in assay buffer
[1]; liver fractions (HLM, HLS9)
  stability and conversion to psilocin: stable in liver fractions with no conversion to psilocin
[2]; 0.5 h, individual mice, No Peak = no detectable compound by LC-MS
  Plasma concentration of psilocybin: No Peak and 2.35 ng/mL and 6.21 ng/mL
[2]; 0.5 h, mean
  Plasma concentration of psilocybin: 4.28 (n = 2) ng/mL
[2]; 1 h, individual mice, No Peak = no detectable compound by LC-MS
  Plasma concentration of psilocybin: No Peak (2×) and 1.21 ng/mL
[2]; 1 h, mean
  Plasma concentration of psilocybin: 1.21 (n = 1) ng/mL
[2]; 2 h, individual mice, No Peak = no detectable compound by LC-MS
  Plasma concentration of psilocybin: No Peak
[2]; 4 h, individual mice, No Peak = no detectable compound by LC-MS
  Plasma concentration of psilocybin: No Peak
[2]; 6 h, individual mice, No Peak = no detectable compound by LC-MS
  Plasma concentration of psilocybin: No Peak
[2]; 8 h, individual mice, No Peak = no detectable compound by LC-MS, bolded value considered an outlier
  Plasma concentration of psilocybin: No Peak (2×) and 2.54 ng/mL
[2]; 1.56 mg/kg oral, 24 h, individual mice, BLQ = below 0.2 ng/mL
  Plasma concentration of psilocin: BLQ
[2]; [7]
  Plasma concentration of psilocin: BLQ
[2]; [8]
  detection of parent compound in plasma after oral administration: not detectable in orally administered animals at any dose

## N[C@@H](Cc1c[nH]c2ccccc12)C(=O)O [tryptophan]
[4]
  5-HT1A receptor modulation (change in % cAMP): no reduction in cellular cAMP levels

## CN(C)CCc1c[nH]c2cccc(OC(=O)SCc3ccccc3)c12 [E(VI)]
[5]
  IC50: > 10 µM
[2]; 5 min, individual mice, concentrations not considered accurate
  Plasma concentration of E(VI): 3.20 ng/mL and 59.0 ng/mL and 11.1 ng/mL
[2]; 5 min, mean ± SD, concentrations not considered accurate
  Plasma concentration of E(VI): 24.4 ± 30.2 ng/mL
[2]; 0.25 h, individual mice, concentrations not considered accurate
  Plasma concentration of E(VI): 72.1 ng/mL and 110 ng/mL and 7.79 ng/mL
[2]; 0.25 h, mean ± SD, concentrations not considered accurate
  Plasma concentration of E(VI): 63.3 ± 51.7 ng/mL
[2]; 0.5 h, individual mice, concentrations not considered accurate
  Plasma concentration of E(VI): 13.1 ng/mL and 9.29 ng/mL and 1.03 ng/mL
[2]; 0.5 h, mean ± SD, concentrations not considered accurate
  Plasma concentration of E(VI): 7.81 ± 6.17 ng/mL
[2]; 1 h, individual mice, concentrations not considered accurate
  Plasma concentration of E(VI): 3.14 ng/mL and 5.84 ng/mL and No Peak
[2]; 1 h, mean, concentrations not considered accurate
  Plasma concentration of E(VI): 4.49 ng/mL
[2]; 2 h, individual mice, values below LLOQ 1 ng/mL included
  Plasma concentration of E(VI): 0.776 ng/mL and 0.594 ng/mL and No Peak
[2]; 2 h, mean, concentrations not considered accurate
  Plasma concentration of E(VI): 0.685 ng/mL
[2]; 4 h, individual mice, BLQ = below 1 ng/mL
  Plasma concentration of E(VI): BLQ (2×) and No Peak
[2]; 6 h, individual mice, BLQ = below 1 ng/mL
  Plasma concentration of E(VI): No Peak (2×) and BLQ
[2]; 8 h, individual mice
  Plasma concentration of E(VI): No Peak
[2]; individual mice
  AUC0-tlast/Dose of E(VI): 20.4 kg·ng·h/mL/mg and 35.2 kg·ng·h/mL/mg and 3.40 kg·ng·h/mL/mg
[2]; mean ± SD
  AUC0-tlast/Dose of E(VI): 19.7 ± 15.9 kg·ng·h/mL/mg
[2]; 1 mg/kg oral
  detection of parent compound in plasma after oral administration: neither B(II) nor E(VI) were detected in plasma
[2]; 1 mg/kg oral, 8 h, individual mice, BLQ = below 0.2 ng/mL
  Plasma concentration of psilocin: BLQ
[2]; [7]
  Plasma concentration of psilocin: No Peak (2×) and BLQ
[2]; 10 mg/kg oral, 24 h, individual mice, BLQ = below 0.2 ng/mL
  Plasma concentration of psilocin: BLQ
[2]; [8]
  detection of parent compound in plasma after oral administration: did not yield any detectable levels of E(VI); also recorded: never detected at any timepoint
[6]
  IC50: > 10 µM
[4]
  5-HT1A receptor modulation (change in % cAMP): mild receptor modulation at higher ligand concentrations
[3]
  Head Twitch Response (HTR): Elevated incidences of HTR; also recorded: elicit head twitching
[3]; side-by-side (FIG. 4F)
  HTR of E(VI) compared to B(II): elevated response

## NCCc1c[nH]c2ccc(O)cc12 [serotonin]
[4]
  5-HT1A receptor modulation (change in % cAMP): reduction in cAMP levels

## CN(C)CCc1c[nH]c2cccc(O)c12 [psilocin]
[4]
  5-HT1A receptor modulation (change in % cAMP): reduction in cAMP levels
